Source: ChEMBL document CHEMBL1121462, “Effect of changing the COOH-terminal amide group present in the hydrophilic cluster of oxytocin to dimethylamide” (1980)

Tests used:
Rattus norvegicus [1] = species: Rattus norvegicus; test: Potency by rat antidiuretic assay; assay type: functional, Urine
Gallus gallus = species: Gallus gallus; test: Potency by avian vasodepressor assay
Rattus norvegicus [2] = species: Rattus norvegicus; test: Potency by rat pressor assay; assay type: functional

Compound: CC[C@H](C)[C@@H]1NC(=O)[C@H](Cc2ccc(O)cc2)NC(=O)[C@@H](N)CSSC[C@@H](C(=O)N2CCC[C@H]2C(=O)N[C@@H](CC(C)C)C(=O)NCC(=O)N(C)C)NC(=O)[C@H](CC(N)=O)NC(=O)[C@H](CCC(N)=O)NC1=O
- Potency (Rattus norvegicus [1]): 0.096 mg
- Potency (Gallus gallus): <0.07 mg
- Potency (Rattus norvegicus [2]): <0.01 mg
